Experimental data published in US10238623B2, “C14-hydroxyl esterified amino acid derivative of triptolide, and preparation method and use thereof” (HANGZHOU WEBEN PHARMACEUTICALS INC, priority 2015, dated 2019).
Where “and” joins values, the source holds several entries; their conditions need not be identical. Equal values may be shown once.

Experiments:
[1] = system: human chronic myelogenous leukemia K562/ADR cells; experiment: K562/ADR subcutaneous xenograft in NOD/SCID mice; assay type: in vivo; details: for growth of K562/ADR cells in mice in vivo (in words): K562/ADR xenograft, intragastric 2 times a day, dose-dependent effect; for Tumor volume: K562/ADR
Description: (§1) 7-week old female NOD/SCID mice were taken and inoculated subcutaneously with 1×10^7 cells (0.2 ml) per mouse in axilla, with human K562/ADR cells on the left. When tumors grew to a tumor size of around 50-100 mm^3, the mice were randomized into groups with 3 mice each. An equivalent amount of PBS was used for the control group, and the TPL-DDV group was divided into two groups with 0.23 mg/kg body weight and 0.46 mg/kg body weight: intragastric administration, 2 times a day (one at 8 a.m. and one at 4 p.m.) for consecutive 14 days of treatment. An observation was made for total 30 days, during which the conditions of the mice such as tumor size, weight, activity, diet, and the like were measured. At the end of the experiment, the mice were sacrificed, tumor tissues were taken and the tumors were weighed, and major organs and tissues of the mice such as liver, spleen, heart, lung, large intestine, small intestine, and the like were examined.
as §1, with “TPL-LV” for “TPL-DDV”, “0.2” for “0.23”, “0.4” for “0.46”

[2] = Body weight and organ examination of tumour-bearing mice; assay type: in vivo, NOD/SCID mice; details: 14 days, individual mice
Description: (§2) 7-week old female NOD/SCID mice were taken and inoculated subcutaneously with 1×10^7 cells (0.2 ml) per mouse in axilla, with human acute myelogenous leukemia KG-1a cells on the left and human acute monocytic leukemia THP-1 cells on the right. When tumors grew to a tumor size of around 0.5 cm, the mice were randomized into groups with 3 mice each. An equivalent amount of PBS was used for the control group, and the 14-D-Valine-TPL group was divided into two groups with 0.2 mg/kg body weight and 0.4 mg/kg body weight: intragastric administration 2 times a day (one at 8 a.m. and one at 4 p.m.) for consecutive 14 days of treatment. An observation was made for total 30 days, during which the conditions of the mice such as tumor size, weight, activity, diet, and the like were measured. At the end of the experiment, the mice were sacrificed, tumor tissues were taken and the tumors were weighed, and major organs and tissues of the mice such as liver, spleen, heart, lung, large intestine, small intestine, and the like were examined.
as §1, with “acute myelogenous leukemia KG-1a” for “K562/ADR”, “TPL-LLV” for “TPL-DDV”
as §1, with “acute myelogenous leukemia KG-1a” for “K562/ADR”, “TPL-DLV” for “TPL-DDV”
as §1, with “acute myelogenous leukemia KG-1a” for “K562/ADR”, “TPL-DLV” for “TPL-DDV”, “0.32” for “0.23”, “0.64” for “0.46”, “examined. […]” for “examined.”

[3] = system: human acute myelogenous leukemia KG-1a cells; experiment: KG-1a subcutaneous xenograft in NOD/SCID mice; assay type: in vivo; details: for growth of KG-1a in mice in vivo (in words): KG-1a xenograft, intragastric 2 times a day, dose-dependent effect; for Tumor volume: KG-1a
Description: as §2
as §1, with “acute myelogenous leukemia KG-1a” for “K562/ADR”, “TPL-LLV” for “TPL-DDV”
as §1, with “acute myelogenous leukemia KG-1a” for “K562/ADR”, “TPL-DLV” for “TPL-DDV”
as §1, with “acute myelogenous leukemia KG-1a” for “K562/ADR”, “TPL-DLV” for “TPL-DDV”, “0.32” for “0.23”, “0.64” for “0.46”

KG-1a = experiment: MTT growth inhibition, KG-1a cells, 72 h; assay type: cell-based; details: Homo sapiens
Description: (§3) 5000 well-grown leukemia cells were taken and seeded into wells of a 96-well cell culture plate. The medium was 1640 cell medium containing 10% fetal bovine serum. 14-D-Valine-TPL with different concentrations was added, and after being uniformly mixed, the plate was placed in a carbon dioxide (5% CO2) cell incubator, and incubated at 37° C. for 72 hours. The concentration of live cells was then determined using the MTT assay. In this experiment, the cell viability in the control group (without the compound treatment) was set to be 100%, and the cell viability (%) after the action of the compound and the half maximal growth inhibitory concentration of leukemia cells at 72 hours (IC50 value at 72 hours) were calculated.

KG-1 = experiment: MTT growth inhibition, KG-1 cells, 72 h; assay type: cell-based; details: Homo sapiens, KG-1, MTT
Description: as §3

THP-1 = experiment: MTT growth inhibition, THP-1 cells, 72 h; assay type: cell-based; details: Homo sapiens, THP-1, MTT
Description: as §3

pancreatic cancer = details: cited from earlier work

CC(C)[C@@H](N)C(=O)N[C@@H](C(=O)O[C@@H]1[C@@]2(C(C)C)O[C@H]2[C@@H]2O[C@]23[C@]12O[C@H]2C[C@H]1C2=C(CC[C@@]13C)C(=O)OC2)C(C)C [14-D-Valine-D-Valine-TPL, 14-Dextro-Valine-Dextro-Valine-Triptolide]
growth of K562/ADR cells in mice in vivo (in words) ([1]; 14 days): significantly inhibit the growth | Tumor volume ([1]; 0.23 mg/kg, Overall): 0 mm^3 | Tumor volume ([1]; 0.46 mg/kg, Overall): 0 mm^3 | Tumor volume ([1]; trifluoroacetate 0.23 mg/kg intragastric 2 times a day, 14 days, individual mice): 0 mm^3 | Tumor volume ([1]; trifluoroacetate 0.46 mg/kg intragastric 2 times a day, 14 days, individual mice): 0 mm^3 | Body weight ([2]; K562/ADR-bearing mice, 0.23 mg/kg intragastric 2 times a day, listed as DDV, 0.23 mg/kg): 19.7 g and 21.2 g and 19.1 g | Body weight ([2]; K562/ADR-bearing mice, 0.46 mg/kg intragastric 2 times a day, listed as DDV, 0.46 mg/kg): 20.5 g and 23.2 g and 19.3 g

CC(C)[C@]12O[C@H]1[C@@H]1O[C@]13[C@]1(O[C@H]1C[C@H]1C4=C(CC[C@@]13C)C(=O)OC4)[C@@H]2OC(=O)[C@H](Cc1ccc(O)cc1)NC(=O)[C@@H](N)Cc1ccccc1 [14-L-Phenylalanyl-L-tyrosine-TPL, 14-Levo-Phenylalanyl-Levo-tyrosine-Triptolide]
growth of KG-1a in mice in vivo (in words) ([3]; 14 days): significantly inhibit the growth | Tumor volume ([3]; 0.64 mg/kg, Overall): 0 mm^3 | Tumor volume ([3]; trifluoroacetate 0.32 mg/kg intragastric 2 times a day, 14 days, individual mice, listed as LPT): 168.07 mm^3 and 93.12 mm^3 and 131.17 mm^3 | Tumor volume ([3]; trifluoroacetate 0.64 mg/kg intragastric 2 times a day, 14 days, individual mice): 0 mm^3 | Body weight ([2]; KG-1a-bearing mice, 0.32 mg/kg intragastric 2 times a day, listed as LPT, 0.32 mg/kg): 20 g and 20.4 g and 21.4 g | Body weight ([2]; KG-1a-bearing mice, 0.64 mg/kg intragastric 2 times a day, listed as LPT, 0.64 mg/kg): 19.4 g and 16.1 g and 17.4 g

CC(C)[C@H](N)C(=O)N[C@@H](C(=O)O[C@@H]1[C@@]2(C(C)C)O[C@H]2[C@@H]2O[C@]23[C@]12O[C@H]2C[C@H]1C2=C(CC[C@@]13C)C(=O)OC2)C(C)C [14-L-Valine-D-Valine-TPL, 14-Levo-Valine-Dextro-Valine-Triptolide]
growth of KG-1a in mice in vivo (in words) ([3]; 14 days): significantly inhibit the growth | Tumor volume ([3]; trifluoroacetate 0.23 mg/kg intragastric 2 times a day, 14 days, individual mice, listed as DLV): 562.66 mm^3 and 505.81 mm^3 and 1038.41 mm^3 | Tumor volume ([3]; trifluoroacetate 0.46 mg/kg intragastric 2 times a day, 14 days, individual mice, listed as DLV): 90.96 mm^3 and 265.32 mm^3 and 50.35 mm^3 | Body weight ([2]; KG-1a-bearing mice, 0.23 mg/kg intragastric 2 times a day, listed as DLV, 0.23 mg/kg): 19.5 g and 17.8 g and 19.6 g | Body weight ([2]; KG-1a-bearing mice, 0.46 mg/kg intragastric 2 times a day, listed as DLV, 0.46 mg/kg): 19.6 g and 18.5 g and 18.8 g

CC(C)[C@H](N)C(=O)N[C@H](C(=O)O[C@@H]1[C@@]2(C(C)C)O[C@H]2[C@@H]2O[C@]23[C@]12O[C@H]2C[C@H]1C2=C(CC[C@@]13C)C(=O)OC2)C(C)C [14-L-Valine-L-Valine-TPL, 14-Levo-Valine-Levo-Valine-Triptolide]
IC50 (KG-1a): 20 nM | growth of KG-1a in mice in vivo (in words) ([3]; 14 days): significantly inhibit the growth | Tumor volume ([3]; trifluoroacetate 0.23 mg/kg intragastric 2 times a day, 14 days, individual mice, listed as LLV): 804.56 mm^3 and 644.07 mm^3 and 1105.64 mm^3 | Tumor volume ([3]; trifluoroacetate 0.46 mg/kg intragastric 2 times a day, 14 days, individual mice, listed as LLV): 383.11 mm^3 and 356.82 mm^3 and 317.61 mm^3 | Body weight ([2]; KG-1a-bearing mice, 0.23 mg/kg intragastric 2 times a day, listed as LLV, 0.23 mg/kg): 19.4 g and 19.7 g and 20.5 g | Body weight ([2]; KG-1a-bearing mice, 0.46 mg/kg intragastric 2 times a day, listed as LLV, 0.46 mg/kg): 20.0 g and 18.9 g and 18.6 g

CC(C)[C@H](N)C(=O)O[C@@H]1[C@@]2(C(C)C)O[C@H]2[C@@H]2O[C@]23[C@]12O[C@H]2C[C@H]1C2=C(CC[C@@]13C)C(=O)OC2 [14-L-Valine-TPL, 14-Levo-Valine-Triptolide]
IC50 (KG-1): 8.86 nM | IC50 (THP-1): 5 nM | growth of K562/ADR cells in mice in vivo (in words) ([1]; 14 days): significantly inhibit the growth | Tumor volume ([1]; trifluoroacetate 0.2 mg/kg intragastric 2 times a day, 14 days, individual mice, listed as LV): 73.63 mm^3 and 0 mm^3 and 159.87 mm^3 | Tumor volume ([1]; trifluoroacetate 0.4 mg/kg intragastric 2 times a day, 14 days, individual mice, listed as LV): 30.71 mm^3 and 96.79 mm^3 and 0 mm^3 | Body weight ([2]; K562/ADR-bearing mice, 0.2 mg/kg intragastric 2 times a day, listed as LV, 0.2 mg/kg): 18 g and 22.2 g and 22 g | Body weight ([2]; K562/ADR-bearing mice, 0.4 mg/kg intragastric 2 times a day, listed as LV, 0.4 mg/kg): 21.2 g and 20.8 g and 21.1 g

CC(C)[C@]12O[C@H]1[C@@H]1O[C@]13[C@]1(O[C@H]1C[C@H]1C4=C(CC[C@@]13C)C(=O)OC4)[C@@H]2OCOP(=O)(O)O [Minnelide]
toxic effect (pancreatic cancer; at a dosage effective to tumor regression): no significant toxic effect | survival of mice (pancreatic cancer; nude mouse model of pancreatic cancer): prolonged the survival of mice
